Target: T1, β-galactosidase (A. oryzae) (Aspergillus oryzae, UniProt Q2UCU3)
T1 construct: gene lacA
T1 sequence (Q2UCU3 19-1005): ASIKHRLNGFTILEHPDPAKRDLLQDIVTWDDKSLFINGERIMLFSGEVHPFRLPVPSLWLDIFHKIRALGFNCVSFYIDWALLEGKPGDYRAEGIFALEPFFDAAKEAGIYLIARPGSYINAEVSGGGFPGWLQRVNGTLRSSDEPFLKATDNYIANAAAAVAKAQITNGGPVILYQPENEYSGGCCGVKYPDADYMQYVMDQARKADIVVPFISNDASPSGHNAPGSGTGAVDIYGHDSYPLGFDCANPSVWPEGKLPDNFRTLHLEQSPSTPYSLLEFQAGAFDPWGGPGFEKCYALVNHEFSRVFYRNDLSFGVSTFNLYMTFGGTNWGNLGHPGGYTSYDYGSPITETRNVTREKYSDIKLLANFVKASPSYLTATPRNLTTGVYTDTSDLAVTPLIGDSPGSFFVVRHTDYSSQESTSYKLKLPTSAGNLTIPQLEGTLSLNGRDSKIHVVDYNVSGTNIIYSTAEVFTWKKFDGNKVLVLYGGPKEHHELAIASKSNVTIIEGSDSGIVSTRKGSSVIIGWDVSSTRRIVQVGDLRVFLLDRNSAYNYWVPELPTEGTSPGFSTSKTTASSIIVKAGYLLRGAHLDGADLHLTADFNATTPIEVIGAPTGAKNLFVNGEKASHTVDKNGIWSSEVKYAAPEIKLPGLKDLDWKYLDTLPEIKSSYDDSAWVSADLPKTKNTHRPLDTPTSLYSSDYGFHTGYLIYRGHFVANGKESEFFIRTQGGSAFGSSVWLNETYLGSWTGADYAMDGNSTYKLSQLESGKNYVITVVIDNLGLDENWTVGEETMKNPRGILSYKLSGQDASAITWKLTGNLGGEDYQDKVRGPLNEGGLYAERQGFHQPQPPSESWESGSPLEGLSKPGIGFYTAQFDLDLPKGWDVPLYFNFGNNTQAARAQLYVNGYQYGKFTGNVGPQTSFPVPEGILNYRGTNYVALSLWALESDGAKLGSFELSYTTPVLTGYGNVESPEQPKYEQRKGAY
Test: Enzyme kinetics with 2-nitrophenyl β-D-galactopyranoside, absorbance at […] nm, Lineweaver–Burk analysis, pH […] °C
Assay type: biochemical

For OC[C@H]1O[C@@H](N2[C@@H]3[C@H]4CC[C@H](C4)[C@@H]32)[C@H](O)[C@@H](O)[C@H]1O (stereo partly drawn) [compound 6, N‐(β‐D‐galactopyranosyl)‐exo‐3‐azatricyclo[3.2.1.0^2,4]octane], the Ki was 3.65 µM.

From paper PMC12666248, “Synthesis of an N‐Galactosyl Norbornane Aziridine and its Potent Mixed Inhibition of Aspergillus oryzae β‐Galactosidase” (Chembiochem, 2025)
